We go through 42 compounds from ChEMBL document CHEMBL4014274, “Oligothiophene compounds inhibit the membrane fusion between H5N1 avian influenza virus and the endosome of host cell” (Eur J Med Chem, 2017).

Data set [1] in a line: Inhibition of Influenza A virus (A/Thailand/Kan353/2004(H5N1)) hemagglutinin expressed in human 293T cells coexpressing NA assessed as reduction in HA mediated viral membrane fusion with MDCK cells pretreated for 30 mins with virus followed by infection in MDCK cells measured after 48 hrs by luciferase reporter gene assay. In kind it is cell-based. In general terms: A reporter such as luciferase makes a cellular process visible.

A short description of data set [2]: Cytotoxicity against MDCK cells after 2 days by MTT assay. The data set is classed as cell-based, Canis lupus familiaris. To be noted: dog. A general note: Tetrazolium dyes change colour on reduction, which living cells bring about.
Data set [3] in a line: Inhibition of Influenza A virus (A/Puerto Rico/8/34(H1N1)) neuraminidase activity infected in MDCK cells assessed as reduction in progeny production using 2-(4-Methylumbelliferyl)-a-D-N-acetylneuraminic acid sodium salt as substrate pretreated for 1 hr with virus followed by 1 hr infection in MDCK cells measured after 48 hrs by fluorescence assay. In kind it is cell-based, Influenza A virus (A/Puerto Rico/8/1934(H1N1)).

Data set [4] deals with Influenza A virus (A/Thailand/Kan353/2004(H5N1)). The data set can be described thus: Potency index, ratio of CL-385319 IC50 to compound IC50 for inhibition of Influenza A virus (A/Thailand/Kan353/2004(H5N1)) hemagglutinin expressed in human 293T cells coexpressing NA assessed as reduction in HA mediated viral membrane fusion with MDCK cells. In kind it is cell-based.
Where [5] appears, read: Influenza A virus, read-out: IC50.

Broadly, the IC50 is the midpoint of a concentration-inhibition curve. The CC50 is the concentration that lowers cell viability or growth by half. A high value points to better tolerance by the cells.

Consider `O=C(NCCCCc1ccc(-c2ccc(CCCCNC(=O)c3cc(F)cc(C(F)(F)F)c3)s2)s1)c1cc(F)cc(C(F)(F)F)c1`, for which the half-inhibitory concentration (IC50) entry in data set [1] is reported as “Not Active”.

`BrCCCc1ccc(-c2ccc(-c3ccc(CCCBr)s3)s2)s1` yielded a 50% cytotoxic concentration (CC50) at 48 h in data set [2] of over 200 µM. Moreover, in data set [1] (setting [5]), the concentration for half-maximal inhibition (IC50) came to 6.64 µM.

In data set [2], `[N-]=[N+]=NCCCc1ccc(-c2ccc(-c3ccc(-c4cccs4)s3)s2)s1` came in with a cytotoxic concentration (CC50) at 48 h of over 100 µM. Moreover, the IC50 in data set [1] (setting [5]) is 46.1 µM.

Consider `BrCCCCc1ccc(-c2ccc(-c3ccc(-c4ccc(CCCCBr)s4)s3)s2)s1`, for which the IC50 result in data set [1] is on record as “Not Active”.

For `O=C(NCCCc1ccc(-c2ccc(CCCNC(=O)c3ccccc3Cl)s2)s1)c1ccccc1Cl`, in data set [1], the IC50 entry was “Not Active”.

Take `[N-]=[N+]=NCCCCc1ccc(-c2ccc(-c3ccc(CCCCN=[N+]=[N-])s3)s2)s1`: the IC50 result in data set [1] is listed as “Not Active”.

Turning to `BrCCCc1ccc(-c2ccc(CCCBr)s2)s1`, the concentration for half-maximal inhibition (IC50) entry in data set [1] is “Not Active”.

In data set [2], `BrCCCCc1ccc(-c2ccc(-c3ccc(CCCCBr)s3)s2)s1` yielded a CC50 at 48 h of over 200 µM. In data set [1] (setting [5]), the IC50 was found to be 0.696 µM.

Compound `BrCCCc1ccc(-c2ccc(-c3cccs3)s2)s1` gave a CC50 at 48 h in data set [2] of 35.3 µM. In addition, the 50% inhibitory concentration (IC50) in data set [1] (setting [5]) worked out at 12.5 µM.

As for `NCCCCc1ccc(CCCCN)s1`, the half-inhibitory concentration (IC50) entry in data set [1] was “Not Active”.

On to `O=C(NCCN1CCCCC1)c1cc(F)cc(C(F)(F)F)c1`, for which the IC50 was 72 µM in data set [3] and 10.6 µM in data set [1] (setting [5]). The CC50 at 48 h in data set [2] is 1370 µM.

`O=C(NCCCc1ccc(-c2ccc(-c3cccs3)s2)s1)c1cc(F)cc(C(F)(F)F)c1`: the half-inhibitory concentration (IC50) entry in data set [1] is given as “Not Active”.

`O=C(NCCCCc1ccc(-c2cccs2)s1)c1cc(F)cc(C(F)(F)F)c1` came in with a CC50 at 48 h in data set [2] of 27.4 µM. Also, the IC50 in data set [1] (setting [5]) was found to be 19.8 µM.

For `NCCCc1ccc(-c2ccc(-c3ccc(-c4cccs4)s3)s2)s1`, the values for the IC50 in data set [3] and in data set [1] (setting [5]) were 0.768 µM and 0.171 µM, respectively. In addition, the half-maximal cytotoxic concentration (CC50) at 48 h in data set [2] was over 200 µM.

On to `NCCCCc1ccc(-c2cccs2)s1`, for which the IC50 result in data set [1] is reported as “Not Active”.

For the compound `O=C(NCCCCc1ccc(CCCCNC(=O)c2cc(F)cc(C(F)(F)F)c2)s1)c1cc(F)cc(C(F)(F)F)c1`, the IC50 result in data set [1] is “Not Active”.

Turning to `NCCCc1ccc(-c2ccc(CCCN)s2)s1`, the concentration for half-maximal inhibition (IC50) result in data set [1] was “Not Active”.

For `O=C(NCCCCc1cccs1)c1cc(F)cc(C(F)(F)F)c1`, in data set [2], the CC50 at 48 h is 43.5 µM. The half-maximal inhibitory concentration (IC50) in data set [1] (setting [5]) was found to be 4.73 µM.

`O=C(NCCc1cccs1)c1cc(F)cc(C(F)(F)F)c1`: the 50% inhibitory concentration (IC50) in data set [1] (setting [5]) worked out at 0.22 µM.

Turning to `NCCCCc1ccc(-c2ccc(-c3ccc(-c4ccc(CCCCN)s4)s3)s2)s1`, the concentration for half-maximal inhibition (IC50) entry in data set [1] is on record as “Not Active”.

As for `NCCCc1ccc(-c2ccc(-c3cccs3)s2)s1`, the IC50 in data set [3] stood at 1.12 µM; in data set [1] (setting [5]), 2.88 µM. Also, half-maximal cytotoxicity in data set [2] (CC50 at 48 h) was put at 18.9 µM.

Consider `NCCCCc1ccc(-c2ccc(CCCCN)s2)s1`, for which half-maximal cytotoxicity in data set [2] (CC50 at 48 h) was put at 26.5 µM. Besides, in data set [1] (setting [5]), the 50% inhibitory concentration (IC50) came to 0.0819 µM.

Regarding `O=C(NCCCc1ccc(-c2cccs2)s1)c1cc(F)cc(C(F)(F)F)c1`, the CC50 at 48 h in data set [2] is 46.7 µM. In data set [1] (setting [5]), the IC50 came to 42.1 µM.

As to `BrCCCc1ccc(-c2ccc(-c3ccc(-c4cccs4)s3)s2)s1`, in data set [2], the CC50 at 48 h is over 200 µM. For the same compound, in data set [1] (setting [5]), the IC50 was 74.1 µM.

For `O=C(NCCCc1ccc(-c2ccc(CCCNC(=O)c3cc(O)cc(O)c3)s2)s1)c1cc(O)cc(O)c1`, in data set [1], the concentration for half-maximal inhibition (IC50) result is listed as “Not Active”.

Consider `O=C(NCCCCc1ccc(-c2ccc(-c3cccs3)s2)s1)c1cc(F)cc(C(F)(F)F)c1`, for which the IC50 entry in data set [1] is “Not Active”.

Regarding `BrCCCCc1ccc(CCCCBr)s1`, the 50% inhibitory concentration (IC50) entry in data set [1] was “Not Active”.

Take `NCCCCc1ccc(-c2ccc(-c3cccs3)s2)s1`: the values for the half-maximal inhibitory concentration (IC50) in data set [3] and in data set [1] (setting [5]) were 1.24 µM and 0.029 µM, respectively. In addition, it took 13.3 µM to reach half-maximal cytotoxicity in data set [2] (CC50 at 48 h). Besides, the Ratio IC50 in data set [4] turned out to be 1000.

In the case of `NCCCCc1ccc(-c2ccc(-c3ccc(-c4cccs4)s3)s2)s1`, the concentration for half-maximal inhibition (IC50) entry in data set [1] is “Not Active”.

With `O=C(NCC(c1cccs1)N1CCCC1)c1cc(F)cc(C(F)(F)F)c1` (stereo not drawn), in data set [2], the CC50 at 48 h worked out at 239 µM. The IC50 in data set [1] (setting [5]) worked out at 6.41 µM.

As for `O=C(NCCCc1ccc(-c2ccc(CCCNC(=O)c3cc(F)cc(C(F)(F)F)c3)s2)s1)c1cc(F)cc(C(F)(F)F)c1`, in data set [1], the concentration for half-maximal inhibition (IC50) entry was “Not Active”.

Regarding `BrCCCCc1ccc(-c2ccc(-c3ccc(-c4cccs4)s3)s2)s1`, the half-maximal inhibitory concentration (IC50) entry in data set [1] is reported as “Not Active”.

In the case of `[N-]=[N+]=NCCCCc1ccc(-c2ccc(-c3ccc(-c4ccc(CCCCN=[N+]=[N-])s4)s3)s2)s1`, the IC50 entry in data set [1] is “Not Active”.

In turn, `NCCCc1ccc(-c2ccc(-c3ccc(CCCN)s3)s2)s1` returned a CC50 at 48 h in data set [2] of over 200 µM. The IC50 in data set [1] (setting [5]) worked out at 4.15 µM.

Regarding `[N-]=[N+]=NCCCc1ccc(-c2ccc(-c3cccs3)s2)s1`, in data set [2], the CC50 at 48 h was over 200 µM. In addition, the IC50 in data set [1] (setting [5]) worked out at 23 µM.

In data set [2], `[N-]=[N+]=NCCCCc1ccc(-c2ccc(-c3cccs3)s2)s1` displayed a CC50 at 48 h of over 200 µM. In addition, the IC50 in data set [1] (setting [5]) was 11.1 µM.

Take `[N-]=[N+]=NCCCCc1ccc(-c2ccc(-c3ccc(-c4cccs4)s3)s2)s1`: the half-inhibitory concentration (IC50) entry in data set [1] is “Not Active”.

The compound `BrCCCCc1ccc(-c2ccc(-c3cccs3)s2)s1` showed a half-maximal cytotoxic concentration (CC50) at 48 h in data set [2] of 23.8 µM. In addition, the IC50 in data set [1] (setting [5]) came out at 11.4 µM.

Consider `NCCCCc1ccc(-c2ccc(-c3ccc(CCCCN)s3)s2)s1`, for which the values for the IC50 in data set [3] and in data set [1] (setting [5]) were 3.29 µM and 0.037 µM, respectively. In addition, half-maximal cytotoxicity in data set [2] (CC50 at 48 h) was put at 13 µM.

Take `O=C(NCCCc1cccs1)c1cc(F)cc(C(F)(F)F)c1`: the CC50 at 48 h in data set [2] turned out to be 40.2 µM. In addition, the half-maximal inhibitory concentration (IC50) in data set [1] (setting [5]) stood at 7.24 µM.

Regarding `O=C(NCCCCc1ccc(-c2ccc(-c3ccc(CCCCNC(=O)c4cc(F)cc(C(F)(F)F)c4)s3)s2)s1)c1cc(F)cc(C(F)(F)F)c1`, the IC50 result in data set [1] was “Not Active”.

For the compound `O=C(NCCCc1ccc(-c2ccc(-c3ccc(CCCNC(=O)c4cc(F)cc(C(F)(F)F)c4)s3)s2)s1)c1cc(F)cc(C(F)(F)F)c1`, the IC50 entry in data set [1] is “Not Active”.
